In BindingDB's records for doi:10.1016/0960-894X(95)00370-9 (1995):

Molecular target: Type-1 angiotensin II receptor A (Rattus norvegicus) (UniProt P25095)
Test: Tested for binding affinity against angiotensin II receptor in rat adrenal cortex

Sequence of Type-1 angiotensin II receptor A (Rattus norvegicus) (P25095 whole entry, looked up): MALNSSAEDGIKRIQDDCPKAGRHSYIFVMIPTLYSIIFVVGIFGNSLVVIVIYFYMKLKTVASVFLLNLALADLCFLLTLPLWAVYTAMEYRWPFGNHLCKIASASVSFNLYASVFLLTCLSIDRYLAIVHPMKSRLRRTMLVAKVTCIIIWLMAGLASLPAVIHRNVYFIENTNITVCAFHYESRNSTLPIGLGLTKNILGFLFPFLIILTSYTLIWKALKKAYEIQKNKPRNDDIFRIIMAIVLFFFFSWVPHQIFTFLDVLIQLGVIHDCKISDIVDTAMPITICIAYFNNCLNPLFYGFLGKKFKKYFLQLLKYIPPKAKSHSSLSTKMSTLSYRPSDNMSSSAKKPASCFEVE

Row | Compound | IC50
1 | CCCc1cc(=O)n(CCN2C(=O)c3ccccc3C2=O)c(=O)n1Cc1ccc(-c2ccccc2-c2nnn[nH]2)cc1 [2-(2-{2,6-Dioxo-4-propyl-3-[2'-(1H-tetrazol-5-yl)-biphenyl-4-ylmethyl]-3,6-dihydro-2H-pyrimidin-1-yl}-ethyl)-isoindole-1,3-dione] | 4.4 nM
2 | CCCc1cc(=O)n(CCNC(=O)C(c2ccccc2)c2ccccc2)c(=O)n1Cc1ccc(-c2ccccc2-c2nnn[nH]2)cc1 [N-(2-{2,6-Dioxo-4-propyl-3-[2'-(1H-tetrazol-5-yl)-biphenyl-4-ylmethyl]-3,6-dihydro-2H-pyrimidin-1-yl}-ethyl)-2,2-diphenyl-acetamide] | 14 nM
